Experimental data taken from patent publication US9789181B2, “PAN-DR binding polypeptides and uses thereof” (Epimmune Inc., priority 2009, dated 2017).
Where no end group is shown, it is not given here.

Experiments:
[1] = molecular target: purified HLA DRB5 *0101 (Homo sapiens, UniProt P01903+Q30154); experiment: IC50nM to purified HLA | DRB5 *0101
Method: (§1) Table printed on a drawing sheet, FIG. 1
Head of the field: IC50nM to purified HLA | DRB5 *0101
(§2) First copying reader's note: The comma is the decimal sign and the point a thousands separator (e.g. 21.831); some values are printed bold or italic and some SEQ ID NOs underlined, with no legend on the sheet.
Where the first naming reader finds the target: head: IC50nM to purified HLA | DRB5 *0101

[2] = molecular target: purified HLA DRB1 *0404 (Homo sapiens, UniProt P01903+P01911, A100R/A169T/F76Y/I96L/K127E/L162R/M171V/N62H/P40V/Q125Y/R42H/S133A/S149N/S66Y/V209L/W38E); experiment: IC50nM to purified HLA | DRB1 *0404
Method: as §1
Head of the field: IC50nM to purified HLA | DRB1 *0404
as §2
Where the first naming reader finds the target: head: IC50nM to purified HLA | DRB1 *0404

[3] = molecular target: purified HLA DRB4 *0101 (Homo sapiens, UniProt P01903+P13762, G164S); experiment: IC50nM to purified HLA | DRB4 *0101
Chain of purified HLA DRB4 *0101 (P01903 26-254 limits assumed): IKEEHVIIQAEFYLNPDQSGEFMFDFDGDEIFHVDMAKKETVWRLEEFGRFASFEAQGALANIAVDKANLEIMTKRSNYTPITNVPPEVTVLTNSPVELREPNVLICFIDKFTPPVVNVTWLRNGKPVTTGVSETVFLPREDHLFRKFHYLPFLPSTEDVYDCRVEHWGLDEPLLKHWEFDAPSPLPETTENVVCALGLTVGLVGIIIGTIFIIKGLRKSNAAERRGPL
Chain of purified HLA DRB4 *0101 (P13762 whole entry G164S): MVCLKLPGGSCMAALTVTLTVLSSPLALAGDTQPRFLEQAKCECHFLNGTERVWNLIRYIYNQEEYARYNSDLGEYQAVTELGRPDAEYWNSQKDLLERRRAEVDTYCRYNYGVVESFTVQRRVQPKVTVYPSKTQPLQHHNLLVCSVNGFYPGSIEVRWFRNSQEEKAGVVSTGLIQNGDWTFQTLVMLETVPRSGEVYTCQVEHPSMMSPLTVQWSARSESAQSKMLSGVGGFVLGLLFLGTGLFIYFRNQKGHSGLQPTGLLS
Method: as §1
Head of the field: IC50nM to purified HLA | DRB4 *0101
as §2
Where the first naming reader finds the target: head: IC50nM to purified HLA | DRB4 *0101

[4] = molecular target: purified HLA DRB1 *0101 (Homo sapiens, UniProt P01903+P01911, A100R/D57E/F55L/F60I/F76Y/I96L/L162R/M171V/P40L/Q125E/R42F/V115G/Y59C); experiment: IC50nM to purified HLA | DRB1 *0101
Method: as §1
Head of the field: IC50nM to purified HLA | DRB1 *0101
as §2
Where the first naming reader finds the target: head: IC50nM to purified HLA | DRB1 *0101

[5] = molecular target: purified HLA DRB1 *0405 (Homo sapiens, UniProt P01903+P01911, A100R/A169T/D86S/F76Y/I96L/K127E/L162R/M171V/N62H/P40V/Q125Y/R42H/S133A/S149N/S66Y/V115G/V209L/W38E); experiment: IC50nM to purified HLA | DRB1 *0405
Method: as §1
Head of the field: IC50nM to purified HLA | DRB1 *0405
as §2
Where the first naming reader finds the target: head: IC50nM to purified HLA | DRB1 *0405

[6] = molecular target: purified HLA DRB1 *0401 (Homo sapiens, UniProt P01903+P01911, A100K/A169T/F76Y/I96L/K127E/L162R/M171V/N62H/P40V/Q125Y/R42H/S133A/S149N/S66Y/V115G/V209L/W38E); experiment: IC50nM to purified HLA | DRB1 *0401
Method: as §1
Head of the field: IC50nM to purified HLA | DRB1 *0401
as §2
Where the first naming reader finds the target: head: IC50nM to purified HLA | DRB1 *0401

[7] = molecular target: purified HLA DRB1 *1302 (Homo sapiens, UniProt P01903+P01911, A100E/A169T/K41T/L162R/M171V/P40S/Q125H/Q178H/Q39Y/Q99D/R42S/S66N/T262R/V115G/W38E/Y61H); experiment: IC50nM to purified HLA | DRB1 *1302
Chain of purified HLA DRB1 *1302 (P01903 26-254 limits assumed, other chains not shown): as the sequence (P01903 26-254 limits assumed) above
Method: as §1
Head of the field: IC50nM to purified HLA | DRB1 *1302
as §2
Where the first naming reader finds the target: head: IC50nM to purified HLA | DRB1 *1302

[8] = molecular target: purified HLA DRB1 *1101 (Homo sapiens, UniProt P01903+P01911, A100R/A169T/A87E/I96F/K41T/L162R/M171V/P40S/Q125H/Q178H/Q39Y/Q99D/R42S/S66Y/T262R/V115G/W38E); experiment: IC50nM to purified HLA | DRB1 *1101
Chain of purified HLA DRB1 *1101 (P01903 26-254 limits assumed, other chains not shown): as the sequence (P01903 26-254 limits assumed) above
Method: as §1
Head of the field: IC50nM to purified HLA | DRB1 *1101
as §2
Where the first naming reader finds the target: head: IC50nM to purified HLA | DRB1 *1101

[9] = molecular target: purified HLA DRB1 *0802 (Homo sapiens, UniProt P01903+P01911, A100R/A103L/A169T/F76Y/H45Y/I96F/K41T/L162R/M171V/P40S/Q125H/Q178H/Q39Y/Q99D/R218S/R42G/S66Y/V115G/W38E); experiment: IC50nM to purified HLA | DRB1 *0802
Method: as §1
Head of the field: IC50nM to purified HLA | DRB1 *0802
as §2
Where the first naming reader finds the target: head: IC50nM to purified HLA | DRB1 *0802

[10] = molecular target: purified HLA DRB1 *0301 (Homo sapiens, UniProt P01903+P01911, A100K/A102G/A103R/A169T/F55Y/I96L/K41T/L162R/M171V/P40S/Q125H/Q178H/Q39Y/R42S/S66N/T106N/T262R/W38E/Y61H); experiment: IC50nM to purified HLA | DRB1 *0301
Chain of purified HLA DRB1 *0301 (P01903 26-254 limits assumed, other chains not shown): as the sequence (P01903 26-254 limits assumed) above
Method: as §1
Head of the field: IC50nM to purified HLA | DRB1 *0301
as §2
Where the first naming reader finds the target: head: IC50nM to purified HLA | DRB1 *0301

[11] = molecular target: purified HLA DRB1 *0701 (Homo sapiens, UniProt P01903+P01911, A100R/A102G/A103Q/D57E/D86V/E43K/F76Y/K127E/L162R/M171V/P40G/Q125H/Q99D/R33Q/R42Y/R54Q/S133A/S66F/T210M/V115G/Y107V/Y59L/Y89S); experiment: IC50nM to purified HLA | DRB1 *0701
Method: as §1
Head of the field: IC50nM to purified HLA | DRB1 *0701
as §2
Where the first naming reader finds the target: head: IC50nM to purified HLA | DRB1 *0701

[12] = molecular target: purified HLA DRB1 *1501 (Homo sapiens, UniProt P01903+P01911); experiment: IC50nM to purified HLA | DRB1 *1501
Method: as §1
Head of the field: IC50nM to purified HLA | DRB1 *1501
as §2
Where the first naming reader finds the target: head: IC50nM to purified HLA | DRB1 *1501

[13] = molecular target: purified HLA DRB1 *0901 (Homo sapiens, UniProt P01903+P01911, A100R/A103E/D57H/D86V/F55Y/F60I/F76Y/I96F/K127E/L162R/M171V/P40D/Q125H/Q99R/R33Q/R42F/S133A/S66N/T210M/V115G/W38K/Y107V/Y59G/Y89S); experiment: IC50nM to purified HLA | DRB1 *0901
Method: as §1
Head of the field: IC50nM to purified HLA | DRB1 *0901
as §2
Where the first naming reader finds the target: head: IC50nM to purified HLA | DRB1 *0901

Row | Molecule | IC50 [1] | IC50 [2] | IC50 [3] | IC50 [4] | IC50 [5] | IC50 [6] | IC50 [7] | IC50 [8] | IC50 [9] | IC50 [10] | IC50 [11] | IC50 [12] | IC50 [13]
1 | AAAYFVAAWTLKAAA [SEQ ID NO: 20] | 5.9 nM | 1.4 nM | 291 nM | 2.7 nM | 6.6 nM | 1.6 nM | 917 nM | 11 nM | 6.1 nM | – | – | – | –
2 | AAAKFVAAWTLKAAA [SEQ ID NO: 4] | 5.4 nM | 2.9 nM | 207 nM | 3.3 nM | 25 nM | – | 648 nM | 11 nM | 5.2 nM | 209 nM | 49 nM | 9.8 nM | –
3 | AAAWFVAANTLHAAA [SEQ ID NO: 10] | 22 nM | – | 606 nM | 3.8 nM | – | 2.9 nM | 38 nM | – | 8.6 nM | 174 nM | 43 nM | 101 nM | 33 nM
4 | AAAFFVAAWTLKADA [SEQ ID NO: 16] | – | 2.7 nM | – | 7.2 nM | 22 nM | 5.3 nM | 7050 nM | 65 nM | 20 nM | – | 91 nM | 64 nM | 32 nM
5 | AAAFFVAAYTLKADA [SEQ ID NO: 17] | 7.3 nM | 6 nM | – | 3.8 nM | 33 nM | 5 nM | 856 nM | 55 nM | 6.7 nM | – | 45 nM | 25 nM | –
6 | AAAFFVAAFTLHAAA [SEQ ID NO: 14] | 29 nM | 1.1 nM | 129 nM | – | – | 2 nM | 219000 nM | – | – | 371 nM | 610 nM | 25 nM | 48 nM
7 | AAAFFVAANTLKADA [SEQ ID NO: 19] | 4.4 nM | 4.5 nM | 5520 nM | 3.4 nM | 9.5 nM | 4 nM | 187 nM | 46 nM | – | 140 nM | – | 103 nM | –
8 | AAAWFVAAWTLHAAA [SEQ ID NO: 7] | – | 2 nM | 447 nM | 4.3 nM | – | – | 4240 nM | 32 nM | – | 111 nM | 84 nM | 36 nM | 33 nM
9 | AAAHFVAAWTLKAAA [SEQ ID NO: 25] | 11 nM | 4.8 nM | 384 nM | 4.7 nM | – | 3.1 nM | 1530 nM | – | – | 262 nM | 110 nM | 20 nM | 45 nM
10 | AAAFFVAANTLHAAA [SEQ ID NO: 15] | – | 4.1 nM | 876 nM | 6.5 nM | 27 nM | 3.8 nM | 64 nM | 42 nM | – | – | – | 70 nM | 31 nM
11 | AAAFFVAAWTLKAAA [SEQ ID NO: 11] | 9.9 nM | 7.3 nM | 517 nM | 5.7 nM | 31 nM | 2.4 nM | 2810 nM | 27 nM | – | 227 nM | 74 nM | 32 nM | 31 nM
12 | AAAWFVAAWTLKAAA [SEQ ID NO: 5] | 9.3 nM | 3.8 nM | 566 nM | – | – | 3.1 nM | 2930 nM | – | 8.5 nM | 161 nM | – | 31 nM | 35 nM
13 | AAAKFVAAWTLHAAA [SEQ ID NO: 6] | 22 nM | 2.4 nM | 209 nM | 3.9 nM | – | 3.4 nM | 656 nM | – | 7.6 nM | – | 35 nM | – | 24 nM
14 | CC(C)C[C@H](NC(=O)[C@@H](NC(=O)[C@H](Cc1c[nH]c2ccccc12)NC(=O)[C@H](C)NC(=O)[C@H](C)NC(=O)[C@@H](NC(=O)[C@H](Cc1ccccc1)NC(=O)[C@H](CCCCN)NC(=O)[C@H](C)N)C(C)C)[C@@H](C)O)C(=O)N[C@@H](CCCCN)C(=O)N[C@@H](C)C(=O)N[C@@H](C)C(=O)N[C@@H](C)C(=O)O [SEQ ID NO: 3] | 19 nM | 0.79 nM | 447 nM | 4 nM | 32 nM | 1.4 nM | 367 nM | 9.1 nM | 9.5 nM | 289 nM | 97 nM | 37 nM | 50 nM
15 | AAAFFVAAFTLKADA [SEQ ID NO: 18] | 9.4 nM | 6.1 nM | 12500 nM | 43 nM | 8.4 nM | 4.5 nM | – | 57 nM | – | – | – | 66 nM | 113 nM
16 | AAAWFVAAYTLHAAA [SEQ ID NO: 8] | 25 nM | 3.2 nM | 460 nM | 3.9 nM | 24 nM | 3.8 nM | 3110 nM | – | – | 160 nM | 91 nM | 6.2 nM | 19 nM
17 | AAAYFVAAYTLHAAA [SEQ ID NO: 22] | – | 1.9 nM | 445 nM | – | 7.3 nM | 2.3 nM | 830 nM | – | 5.2 nM | 77 nM | 65 nM | 4 nM | 11 nM
